Ten compounds from ChEMBL document CHEMBL3596189, “Perspective: Challenges and opportunities in TB drug discovery from phenotypic screening” (Bioorg Med Chem, 2015) can be followed below.

A short description of data set [1]: Systemic clearance in mouse. The data set is classed as ADME, organism-based. Conditions: in vivo.
Data set [2] relates to Mycobacterium tuberculosis. The experiment in a line: Antimycobacterial activity against Mycobacterium tuberculosis assessed as inhibition of bacterial growth measured in glycerol-containing medium. The data set is classed as functional.
Data set [3] can be described thus: Oral bioavailability in mouse. The settings on record: in vivo. Type of data set: ADME, organism-based.
Data set [4] can be described thus: Elimination half life in mouse. The data set is classed as ADME, organism-based. The settings on record: in vivo, read-out: beta t1/2 (converted).
The nature of data set [5]: Volume of distribution in mouse. Type of data set: ADME, organism-based. Conditions: in vivo.
For data set [6], the system named is Mycobacterium tuberculosis. The data set is described as follows: Antimycobacterial activity against Mycobacterium tuberculosis infected in mouse assessed as reduction of lung bacterial load at 25 mg/kg, po. The data set is classed as functional.
The subject of data set [7] is Mycobacterium tuberculosis. The data set is described as follows: Antimycobacterial activity against Mycobacterium tuberculosis infected in mouse assessed as log reduction of lung bacterial load at 50 mg/kg administered for 4 weeks. The data set is classed as functional.

Structures are written as SMILES. Values after ≈ are worked out from the molar mass of the structure shown.

For the compound `CC1(C)CCC(NC(=O)c2cc3c(Cl)cc(Cl)cc3[nH]2)CC1`, the clearance (as a rule, the volume of plasma or blood freed of the substance per unit of time) in data set [1] is 18.1 mL/min/kg. The MIC50 (as a rule, the lowest concentration that inhibits either 50% of growth or 50% of the strains tested, depending on the study) in data set [2] was found to be 0.02 µM (≈ 0.00679 µg/mL). For the same compound, the bioavailability – broadly, dose-corrected exposure relative to a reference, in per cent – in data set [3] is above 50%. The half-life in data set [4] was 5.1 h. Further, the Vd (commonly the apparent volume that relates the amount in the body to the concentration in plasma or blood) in data set [5] amounted to 4.1 L/kg. In the case of `Cc1ccc(C(=O)N2CCOCC2)cc1Nc1nccn1-c1cc(NC2CC2)ncn1`, the MIC50 in data set [2] was 0.04 µM (≈ 0.0168 µg/mL). Take `CC1(C)CCC(Cc2cc(O)c(-c3ccccc3)c(=O)[nH]2)CC1`: the MIC50 in data set [2] amounted to 0.03 µM (≈ 0.00934 µg/mL). The same measure, in the same setting: next, `CC(=O)Nc1ccc(C)c(Nc2nccn2-c2cc(NC3CC3)ncn2)c1`: 1 µM (≈ 0.363 µg/mL).

Turning to `CC(C)Cc1cc(O)c(-c2ccccc2)c(=O)[nH]1`, the MIC50 in data set [2] is 2.2 µM (≈ 0.535 µg/mL). For the compound `Cc1ccc([C@H]2C[C@@H](C(F)(F)F)n3ncc(C(=O)NCc4ccc(F)cc4)c3N2)cc1`, the MIC50 in data set [2] was 0.2 µM (≈ 0.0865 µg/mL). Moreover, in data set [6], the log10cfu was determined as 3.5. Turning to `Cc1ccc2nc(C)c(C(=O)NCc3ccc(-c4ccncc4)cc3)n2c1`, the MIC50 in data set [2] is 0.01 µM (≈ 0.00356 µg/mL). Moreover, in data set [7], the log10cfu is reported as 1. Regarding `Cc1nc2ccccn2c1C(=O)NCc1ccccc1`, the MIC50 in data set [2] came to 0.2 µM (≈ 0.0531 µg/mL). On the same count and under the same terms, as for `Cc1cc(C)c2cc(C(=O)NC3CCCCC3)[nH]c2c1`, the figure is 0.8 µM (≈ 0.216 µg/mL). Regarding `Cc1ccc(CNC(=O)c2cnn3c2NC(c2ccccc2)CC3C(F)(F)F)cc1` (stereo unspecified), in data set [2], the MIC50 was 1.9 µM (≈ 0.787 µg/mL).
